Source: PubChem BioAssay AID330 (DTP/NCI, 2004)
Several values for one entry are separate records, joined by “and”; a condition that tells them apart may be missing. Identical values can stand only once. Inconclusive results and toxic doses are left out. The calls were made as follows: active = survival T/C of 150% or more; inactive = T/C below 125% in these data.

Tested on: P388 leukemia ip, CD2F1 mice, survival T/C
Assay: NCI In Vivo Anticancer Drug Screen. Data for tumor model P388 Leukemia (intraperitoneal) in CD2F1 (CDF1) mice
Details: endpoint: median survival time, higher = longer survival
Method in brief: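 Mice carrying the transplanted tumor received test compound or vehicle. Survival was recorded in each group, and the value is the treated-group measurement divided by that of the vehicle-treated control group.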

[1] = dose: 50.0 mg/kg/injection, schedule: Q01DX009 (ip), vehicle: saline with Tween-80
[2] = dose: 100.0 mg/kg/injection, schedule: Q01DX009 (ip), vehicle: saline with Tween-80
[3] = dose: 200.0 mg/kg/injection, schedule: Q01DX009 (ip), vehicle: saline with Tween-80

Measured: T/C

Nc1ncnc2c1ncn2C1OC(COP(=O)(O)O)C(O)C1O (configuration not stated)
inactive: dose: 12.5 mg/kg/injection, schedule: Q01DX009 (ip), vehicle: saline 99 % of control | dose: 18.8 mg/kg/injection, schedule: Q03HX016 (ip), vehicle: saline 123 % of control | dose: 18.8 mg/kg/injection, schedule: Q03HX024 (ip), vehicle: saline 113 % of control | dose: 20.0 mg/kg/injection, schedule: Q01DX009 (ip), vehicle: water 96 % of control | dose: 25.0 mg/kg/injection, schedule: Q01DX009 (ip), vehicle: saline 102 % of control | dose: 25.0 mg/kg/injection, schedule: Q01DX009 (ip), vehicle: suspension in saline 104 % of control | dose: 40.0 mg/kg/injection, schedule: Q01DX009 (ip), vehicle: water 103 % of control and 105 % of control | dose: 50.0 mg/kg/injection, schedule: Q01DX005 (ip), vehicle: water 101 % of control | dose: 50.0 mg/kg/injection, schedule: Q01DX005 (iv), vehicle: water 102 % of control | dose: 50.0 mg/kg/injection, schedule: Q01DX009 (ip), vehicle: saline 94 % of control and 98 % of control | dose: 50.0 mg/kg/injection, schedule: Q01DX009 (ip), vehicle: suspension in saline 100 % of control | dose: 50.0 mg/kg/injection, schedule: Q01DX009 (ip), vehicle: water 113 % of control | dose: 80.0 mg/kg/injection, schedule: Q01DX009 (ip), vehicle: water 108 % of control and 116 % of control | dose: 90.0 mg/kg/injection, schedule: Q03HX024 (ip), vehicle: water 122 % of control | dose: 100.0 mg/kg/injection, schedule: Q01DX005 (ip), vehicle: water 122 % of control | dose: 100.0 mg/kg/injection, schedule: Q01DX005 (iv), vehicle: water 104 % of control | dose: 100.0 mg/kg/injection, schedule: Q01DX009 (ip), vehicle: saline 101 % of control and 96 % of control | dose: 100.0 mg/kg/injection, schedule: Q01DX009 (ip), vehicle: suspension in saline 96 % of control | dose: 100.0 mg/kg/injection, schedule: Q01DX009 (oral), vehicle: water 99 % of control | dose: 100.0 mg/kg/injection, schedule: Q04DX003 (ip), vehicle: water 120 % of control | dose: 100.0 mg/kg/injection, schedule: Q08DX002 (ip), vehicle: water 112 % of control | dose: 160.0 mg/kg/injection, schedule: Q01DX009 (ip), vehicle: water 109 % of control | dose: 200.0 mg/kg/injection, schedule: Q01DX005 (iv), vehicle: water 102 % of control | dose: 200.0 mg/kg/injection, schedule: Q01DX009 (ip), vehicle: saline 92 % of control and 101 % of control | dose: 200.0 mg/kg/injection, schedule: Q01DX009 (ip), vehicle: suspension in saline 106 % of control | dose: 200.0 mg/kg/injection, schedule: Q01DX009 (oral), vehicle: water 104 % of control | dose: 200.0 mg/kg/injection, schedule: Q04DX003 (ip), vehicle: water 121 % of control | dose: 200.0 mg/kg/injection, schedule: Q08DX002 (ip), vehicle: water 113 % of control | dose: 400.0 mg/kg/injection, schedule: Q01DX005 (iv), vehicle: water 106 % of control | dose: 400.0 mg/kg/injection, schedule: Q01DX009 (ip), vehicle: saline 104 % of control | dose: 400.0 mg/kg/injection, schedule: Q03HX009 (oral), vehicle: water 98 % of control | dose: 400.0 mg/kg/injection, schedule: Q03HX015 (oral), vehicle: water 103 % of control | dose: 400.0 mg/kg/injection, schedule: Q04DX003 (ip), vehicle: water 119 % of control | dose: 400.0 mg/kg/injection, schedule: Q08DX002 (ip), vehicle: water 118 % of control | dose: 800.0 mg/kg/injection, schedule: Q01DX005 (iv), vehicle: water 111 % of control | dose: 800.0 mg/kg/injection, schedule: Q01DX009 (oral), vehicle: water 90 % of control | dose: 800.0 mg/kg/injection, schedule: Q03HX009 (oral), vehicle: water 105 % of control | dose: 800.0 mg/kg/injection, schedule: Q03HX015 (oral), vehicle: water 100 % of control | dose: 800.0 mg/kg/injection, schedule: Q08DX002 (ip), vehicle: water 124 % of control | dose: 1600.0 mg/kg/injection, schedule: Q01DX009 (oral), vehicle: water 99 % of control | dose: 1600.0 mg/kg/injection, schedule: Q03HX009 (oral), vehicle: water 98 % of control | dose: 1600.0 mg/kg/injection, schedule: Q03HX015 (oral), vehicle: water 100 % of control | dose: 3200.0 mg/kg/injection, schedule: Q03HX009 (oral), vehicle: water 96 % of control | dose: 3200.0 mg/kg/injection, schedule: Q03HX015 (oral), vehicle: water 102 % of control
active: dose: 75.0 mg/kg/injection, schedule: Q03HX016 (ip), vehicle: saline 152 % of control | dose: 75.0 mg/kg/injection, schedule: Q03HX024 (ip), vehicle: saline 150 % of control | dose: 100.0 mg/kg/injection, schedule: Q03HX016 (ip), vehicle: saline 156 % of control | dose: 100.0 mg/kg/injection, schedule: Q03HX016 (ip), vehicle: water 160 % of control | dose: 100.0 mg/kg/injection, schedule: Q03HX024 (ip), vehicle: saline 150 % of control | dose: 100.0 mg/kg/injection, schedule: Q03HX024 (ip), vehicle: water 151 % of control | dose: 150.0 mg/kg/injection, schedule: Q03HX016 (ip), vehicle: saline 167 % of control | dose: 150.0 mg/kg/injection, schedule: Q03HX024 (ip), vehicle: saline 171 % of control | dose: 200.0 mg/kg/injection, schedule: Q03HX016 (ip), vehicle: water 183 % of control | dose: 200.0 mg/kg/injection, schedule: Q03HX024 (ip), vehicle: water 186 % of control | dose: 400.0 mg/kg/injection, schedule: Q01DX009 (ip), vehicle: water 153 % of control | dose: 400.0 mg/kg/injection, schedule: Q03HX016 (ip), vehicle: water 230 % of control | dose: 400.0 mg/kg/injection, schedule: Q03HX024 (ip), vehicle: water 210 % of control | dose: 800.0 mg/kg/injection, schedule: Q01DX005 (ip), vehicle: water 158 % of control | dose: 800.0 mg/kg/injection, schedule: Q01DX009 (ip), vehicle: water 164 % of control | dose: 800.0 mg/kg/injection, schedule: Q03HX009 (ip), vehicle: water 167 % of control | dose: 800.0 mg/kg/injection, schedule: Q03HX016 (ip), vehicle: water 260 % of control | dose: 1600.0 mg/kg/injection, schedule: Q03HX009 (ip), vehicle: water 197 % of control

CCC1(O)CC(OC2CC(NC)C(OC3CC(O)C(OC4CC(O)C(O)C(C)O4)C(C)O3)C(C)O2)c2c(cc3c(c2O)C(=O)c2c(O)ccc(O)c2C3=O)C1C(=O)OC (configuration not stated)
inactive: dose: 3.13 mg/kg/injection, schedule: Q04DX003 (ip), vehicle: Klucel (hydroxypropylcellulose) (HPC) 115 % of control | dose: 6.25 mg/kg/injection, schedule: Q04DX003 (ip), vehicle: Klucel (hydroxypropylcellulose) (HPC) 118 % of control | dose: 12.5 mg/kg/injection, schedule: Q04DX003 (ip), vehicle: Klucel (hydroxypropylcellulose) (HPC) 115 % of control

CCN(CC)Cc1cc(C)c(O)c(N=Nc2ccc3c4c(cccc24)-c2ccccc2-3)c1C
inactive: [1] 90 % of control | [2] 93 % of control | [3] 89 % of control

CC1=NN(C(=O)c2ccncc2)C(=O)C1N=Nc1ccc(S(N)(=O)=O)cc1 (configuration not stated)
inactive: [1] 94 % of control | [2] 95 % of control | [3] 92 % of control

CCOc1ccc(C(C)c2cc3c(cc2OC)OCO3)cc1C (configuration not stated)
inactive: dose: 50.0 mg/kg/injection, schedule: Q01DX005 (ip), vehicle: Klucel (hydroxypropylcellulose) (HPC) 109 % of control and 113 % of control | dose: 100.0 mg/kg/injection, schedule: Q01DX005 (ip), vehicle: Klucel (hydroxypropylcellulose) (HPC) 108 % of control and 118 % of control | dose: 200.0 mg/kg/injection, schedule: Q01DX005 (ip), vehicle: Klucel (hydroxypropylcellulose) (HPC) 116 % of control
active: dose: 400.0 mg/kg/injection, schedule: Q01DX005 (ip), vehicle: Klucel (hydroxypropylcellulose) (HPC) 165 % of control

Cc1ccc2c(c1)C(=Nc1ccc(Cl)cc1)C(=O)N2
inactive: dose: 0.93 mg/kg/injection, schedule: Q01DX005 (ip), vehicle: saline with Tween-80 101 % of control | dose: 1.87 mg/kg/injection, schedule: Q01DX005 (ip), vehicle: saline with Tween-80 93 % of control | dose: 3.75 mg/kg/injection, schedule: Q01DX005 (ip), vehicle: saline with Tween-80 87 % of control | dose: 15.0 mg/kg/injection, schedule: Q01DX005 (ip), vehicle: saline with Tween-80 87 % of control | dose: 60.0 mg/kg/injection, schedule: Q01DX005 (ip), vehicle: saline with Tween-80 99 % of control | dose: 120.0 mg/kg/injection, schedule: Q01DX005 (ip), vehicle: saline with Tween-80 87 % of control | dose: 240.0 mg/kg/injection, schedule: Q01DX005 (ip), vehicle: saline with Tween-80 95 % of control
